# Source: US10053431B2, “Tetrahydro-benzodiazepinones” (priority 2013, dated 2018)
# Where a name gives a salt, the structure may show the parent alone.
# Tests used:
# BIR3 domain of XIAP = BIR3 domain of XIAP (Homo sapiens (Human), UniProt P98170); test: TR-FRET assay for BIR3 (inhibition of binding of XIAP BIR3 domain to SMAC-derived Peptide A); settings: 6x His-tagged BIR3 domain (aa 241-356 of XIAP) 10 nM, Peptide A 20 nM, TR-FRET
# BIR2 domain of XIAP = BIR2 domain of XIAP (Homo sapiens (Human), UniProt P98170, C202A/C213G); test: TR-FRET assay for BIR2 (inhibition of binding of XIAP BIR2 domain to SMAC-derived Peptide A); settings: 6x His-tagged BIR2 domain (aa 124-240 of XIAP) 10 nM, Peptide A 20 nM, TR-FRET; read-out: IC50 BIR2
# BIR2 domain of XIAP, sequence (P98170 124-240 with tags or gaps C202A/C213G limits assumed): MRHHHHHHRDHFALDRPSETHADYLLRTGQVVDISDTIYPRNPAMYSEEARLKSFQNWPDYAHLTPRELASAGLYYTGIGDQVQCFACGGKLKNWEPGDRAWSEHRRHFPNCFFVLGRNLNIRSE
# BIR3 domain of XIAP, sequence (P98170 241-356 with tags or gaps limits assumed): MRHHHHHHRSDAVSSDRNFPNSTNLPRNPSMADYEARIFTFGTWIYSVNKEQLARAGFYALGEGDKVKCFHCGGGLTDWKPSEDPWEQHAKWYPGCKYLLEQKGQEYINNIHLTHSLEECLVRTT
Structure (SMILES),IC50 (BIR3 domain of XIAP) [µM],IC50 (BIR2 domain of XIAP) [nM]
"CN[C@@H](C)C(=O)N[C@H]1CNc2cc(C#N)ccc2N(Cc2nn(-c3ccccc3C#N)c3ccccc23)C1=O [Example 168, (S)-N-((S)-7-cyano-1-((1-(2-cyanophenyl)-1H-indazol-3-yl)methyl)-2-oxo-2,3,4,5-tetrahydro-1H-benzo[b][1,4]diazepin-3-yl)-2-(methylamino)propanamide dihydrochloride]",> 54.8,95.7
"CN[C@@H](C)C(=O)N[C@H]1CN(C(C)=O)c2cc(C#N)ccc2N(Cc2nn(-c3ccccc3C#N)c3ccccc23)C1=O [Example 169, (S)-N-((S)-5-acetyl-7-cyano-1-((1-(2-cyanophenyl)-1H-indazol-3-yl)methyl)-2-oxo-2,3,4,5-tetrahydro-1H-benzo[b][1,4]diazepin-3-yl)-2-(methylamino)propanamide hydrochloride]",> 54.8,33.2
"CN[C@@H](C)C(=O)N[C@H]1CN(C(=O)C2CCOCC2)c2cc(C#N)ccc2N(Cc2nn(-c3ccccc3C#N)c3ccccc23)C1=O [Example 170, (S)-N-((S)-7-cyano-1-((1-(2-cyanophenyl)-1H-indazol-3-yl)methyl)-2-oxo-5-(tetrahydro-2H-pyran-4-carbonyl)-2,3,4,5-tetrahydro-1H-benzo[b][1,4]diazepin-3-yl)-2-(methylamino)propanamide hydrochloride]",> 54.8,25.5
"CN[C@@H](C)C(=O)N[C@H]1CN(C(=O)CS(C)(=O)=O)c2ccc(C#N)cc2N(Cc2c(OC)ccc3ccccc23)C1=O [Example 171, (S)-N-((S)-8-cyano-1-((2-methoxynaphthalen-1-yl)methyl)-5-(2-(methylsulfonyl)acetyl)-2-oxo-2,3,4,5-tetrahydro-1H-benzo[b][1,4]diazepin-3-yl)-2-(methylamino)propanamide hydrochloride]",41.2,30.3
"CN[C@@H](C)C(=O)N[C@H]1CN(C(=O)CS(C)(=O)=O)c2ccc(C#N)cc2N(Cc2c(C)ccc3ccccc23)C1=O [Example 172, (S)-N-((S)-8-cyano-1-((2-methylnaphthalen-1-yl)methyl)-5-(2-(methylsulfonyl)acetyl)-2-oxo-2,3,4,5-tetrahydro-1H-benzo[b][1,4]diazepin-3-yl)-2-(methylamino)propanamide hydrochloride]",> 54.8,94.7
"CN[C@@H](C)C(=O)N[C@H]1CN(C(=O)CCOC)c2cc(C#N)ccc2N(Cc2nn(-c3ccccc3C#N)c3ccccc23)C1=O [Example 173, (S)-N-((S)-7-cyano-1-((1-(2-cyanophenyl)-1H-indazol-3-yl)methyl)-5-(3-methoxypropanoyl)-2-oxo-2,3,4,5-tetrahydro-1H-benzo[b][1,4]diazepin-3-yl)-2-(methylamino)propanamide hydrochloride]",> 54.8,37.6
"CN[C@@H](C)C(=O)N[C@H]1CN(C(=O)c2ccncc2)c2cc(C#N)ccc2N(Cc2nn(-c3ccccc3C#N)c3ccccc23)C1=O [Example 174, (S)-N-((S)-7-cyano-1-((1-(2-cyanophenyl)-1H-indazol-3-yl)methyl)-5-isonicotinoyl-2-oxo-2,3,4,5-tetrahydro-1H-benzo[b][1,4]diazepin-3-yl)-2-(methylamino)propanamide dihydrochloride]",> 54.8,22.4
"CN[C@@H](C)C(=O)N[C@H]1CN(C(C)=O)c2cc(C#N)ccc2N(Cc2c(C3CC3)ccc3c(C#N)cccc23)C1=O [Example 176, (S)-N-((S)-5-acetyl-7-cyano-1-((5-cyano-2-cyclopropylnaphthalen-1-yl)methyl)-2-oxo-2,3,4,5-tetrahydro-1H-benzo[b][1,4]diazepin-3-yl)-2-(methylamino)propanamide hydrochloride]",25.6,38.2
"CN[C@@H](C)C(=O)N[C@H]1CN(C(C)=O)c2cc(C(F)(F)F)ccc2N(Cc2nn(-c3ccccc3C#N)c3ccccc23)C1=O [Example 177, (S)-N-((S)-5-acetyl-1-((1-(2-cyanophenyl)-1H-indazol-3-yl)methyl)-2-oxo-7-(trifluoromethyl)-2,3,4,5-tetrahydro-1H-benzo[b][1,4]diazepin-3-yl)-2-(methylamino)propanamide hydrochloride]",> 54.8,35.3
"CN[C@@H](C)C(=O)N[C@H]1CN(C(=O)c2ccc(N)cc2)c2ccccc2N(Cc2c(OCCF)ccc3ccccc23)C1=O [Example 178, (2S)-N-[(3S)-1-(4-aminobenzoyl)-5-[[2-(2-fluoroethoxy)naphthalen-1-yl]methyl]-4-oxo-2,3-dihydro-1,5-benzodiazepin-3-yl]-2-(methylamino)propanamide;hydrochloride]",16.1,14.2
"CN[C@@H](C)C(=O)N[C@H]1CN(C(=O)C2CCOCC2)c2cc(C#N)ccc2N(Cc2c(C3CC3)cnc3ccccc23)C1=O [Example 180, (S)-N-((S)-7-cyano-1-((3-cyclopropylquinolin-4-yl)methyl)-2-oxo-5-(telrahydro-2H-pyran-4-carbonyl)-2,3,4,5-tetrahydro-1H-benzo[b][1,4]diazepin-3-yl)-2-(methylamino)propanamide]",16.5,18
"CN[C@@H](C)C(=O)N[C@H]1CN(C(C)=O)c2cc(C#N)ccc2N(Cc2c(OC)ccc3c(C#N)cccc23)C1=O [Example 182, (S)-N-((S)-5-acetyl-7-cyano-1-((5-cyano-2-methoxynaphthalen-1-yl)methyl)-2-oxo-2,3,4,5-tetrahydro-1H-benzo[b][1,4]diazepin-3-yl)-2-(methylamino)propanamide]",32.4,23.5
"CN[C@@H](C)C(=O)N[C@H]1CN(C(=O)C2CCOCC2)c2cc(C(F)(F)F)ccc2N(Cc2c(C3CC3)cnc3ccccc23)C1=O [Example 184, (S)-N-((S)-1-((3-cyclopropylquinolin-4-yl)methyl)-2-oxo-5-(tetrahydro-2H-pyran-4-carbonyl)-7-(trifluoromethyr)-2,3,4,5-tetrahydro-1H-benzo[b][1,4]diazepin-3-yl)-2-(methylamino)propanamide]",15.2,18.3
"CN[C@@H](C)C(=O)N[C@H]1CN(C(=O)CS(C)(=O)=O)c2cc(C(F)(F)F)ccc2N(Cc2c(C3CC3)cnc3ccccc23)C1=O [Example 187, (S)-N-((S)-1-((3-cyclopropylquinolin-4-yl)methyl)-5-(2-(methylsulfonyl)acetyl)-2-oxo-7-(trifluoromethyl)-2,3,4,5-tetrahydro-1H-benzo[b][1,4]diazepin-3-yl)-2-(methylamino)propanamide]",34.4,49.3
"CN[C@@H](C)C(=O)N[C@H]1CN(C(=O)CCS(C)(=O)=O)c2cc(C(F)(F)F)ccc2N(Cc2c(C3CC3)cnc3ccccc23)C1=O [Example 188, (S)-N-((S)-1-((3-cyclopropylquinolin-4-yl)methyl)-5-(3-(methylsulfonyl)propanoyl)-2-oxo-7-(trifluoromethyl)-2,3,4,5-tetrahydro-1H-benzo[b][1,4]diazepin-3-yl)-2-(methylamino)propanamide]",25.4,22.5
"CN[C@@H](C)C(=O)N[C@H]1CN(C(C)=O)c2cc(C(F)(F)F)ccc2N(Cc2c(C3CC3)ccc3c(C#N)cccc23)C1=O [Example 189, (S)-N-((S)-5-acetyl-1-((5-cyano-2-cyclopropylnaphthalen-1-yl)methyl)-2-oxo-7-(trifluoromethyl)-2,3,4,5-tetrahydro-1H-benzo[b][1,4]diazepin-3-yl)-2-(methylamino)propanamide]",29.3,30.4
